For test [1], the system named is Arabidopsis plants. The note with it: normal Arabidopsis plants; cited from earlier work.
Test [2] deals with bzr1-D mutant. Briefly: Brassinazole sensitivity of the bzr1-D mutant. Format: in vivo, Arabidopsis thaliana. An excerpt:
(§1) The mutagenized plants were put through a screening procedure based on the use of brassinazole, a triazole-type brassinosteroid biosynthesis inhibitor (Asami, et al., Plant Physiol. 123: 93, 2000).
The dark-grown bzr1-D mutant is insensitive to brassinazole inhibition of hypocotyl elongation. The bzr1-D mutant has a curly hypocotyl similar to that of a seedling grown on medium containing brassinosteroids.

The test system of test [3] is Arabidopsis plants. The test can be described thus: Brassinazole application to Arabidopsis plants (mutant screen). Format: in vivo, Arabidopsis thaliana. As to conditions: EMS mutagenized Arabidopsis plants, most plants. Here is the method: EMS mutagenized Arabidopsis seeds were grown into plants that were then subjected to a suppressor screen for mutants insensitive to the brassinosteroid pathway inhibitor brassinazole. […] The mutant protein is herein referred to as bzr1-D (SEQ ID NO. 7).
as §1

Consider `CC(O)(c1ccccc1)C(Cc1ccc(Cl)cc1)n1cncn1` (stereo not shown) [brassinazole], for which the “Effects of brassinazole application” value in test [1] was “dwarfism, altered leaf morphology, darker greening of leaves, and decreased hypocotyl length”. Moreover, the Bassinazole sensitivity entry in test [2] (dark-grown) was “insensitive”; in test [2] (light-grown) it was “partially sensitive”. Besides, the “Phenotype of plants treated with brassinazole” value in test [3] is on record as “stunted”.

(Values after patent US6921848B2, “Genes involved in brassinosteroid hormone action in plants” (The Salk Institute for Biological Studies, priority 2001, dated 2005).)
